# In PubChem BioAssay AID463074 (Broad Institute, 2010):
# Activity calls are given as the source filed them.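 The calls were made as follows: active = AC50 no more than tenfold above the top dose tested, or full inhibition at every dose with a flat fit (cut at about 19 µM in these data); inconclusive = flat curve fit with inhibition between 30% and 70%, or poor fit; inactive = AC50 more than tenfold above the top dose tested.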
# Test system: HMLE_sh_eGFP viability, CellTiter-Glo luminescence, 72 h
# Test: cytotoxicity in HMLE control line with eGFP shRNA, dose response, counter-screen for HMLE_sh_ECad selective toxicity project, cell-based, HMLE_sh_eGFP, luminescence (AID 463074);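 also: counterscreen control line to flag general toxicity for the HMLE_sh_ECad screen; potency for loss of viability as luminescence drops below DMSO wells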
row,SMILES,AC50
1,Cc1ccc(-c2csc3ncnc(-n4cnc5ccccc54)c23)cc1,4.28 µM
2,COc1ccc(CN2C(=O)c3cccnc3C2Nc2cc(Cl)ccc2OC)cc1 (configuration not stated),> 19.5 µM (inactive)
3,COc1c(CC=C(C)C)cc(C2CC(=O)c3c(O)cc(O)cc3O2)cc1CC=C(C)C (configuration not stated),3.65 µM
4,COc1ccc(/C=N/NC(=S)Nc2ccccc2[N+](=O)[O-])cc1O,5.87 µM
5,CC(C)c1ccc(-c2cc(C(=O)N3N=C(C(F)F)CC3(O)C(F)F)c3ccccc3n2)cc1 (configuration not stated),6.3 µM
6,CC(=O)NC1=C(C#N)C(c2ccccc2)c2c(ccc3ccccc23)O1 (configuration not stated),3.44 µM
7,CCCCC1CCC(C(=O)N(CC(C)C)c2c(N)n(Cc3ccccc3)c(=O)[nH]c2=O)CC1 (configuration not stated),4.62 µM
8,Cc1ccc(/C=C/C(=O)N2CC(C)CC(C)C2)o1 (configuration not stated),17 µM
9,O=C(NCCc1c[nH]c2ccccc12)C1CCC(Cn2c(=S)[nH]c3ccccc3c2=O)CC1 (configuration not stated),0.707 µM
10,CCCc1cc2c(=O)c(-c3ccc4c(c3)OCCO4)coc2cc1OC(=O)c1ccco1,10.9 µM
11,O=C(CSC1=NNC(c2ccccn2)S1)Nc1ccc(C(F)(F)F)cc1 (configuration not stated),4.27 µM
12,O=C(CSc1nnc(-c2ccccc2O)n1Cc1ccccc1)NNC(=O)c1ccccc1O,3.22 µM
13,Cc1ccc(-c2csc(-c3c[nH]c4ccccc34)n2)c(C)c1,4.19 µM
14,O=[N+]([O-])c1ccc(S(=O)(=O)CC(CN2CCCCC2)N2CCCCC2)cc1 (configuration not stated),5.37 µM
15,Cc1ccc(/C=C/C(=O)Nc2ccc(Oc3ccccc3)cc2)o1,5.42 µM
16,O=c1c2cc(NC(=S)NCCCN3CCC(Cc4ccccc4)CC3)ccc2nc2n1CCCCC2,6.21 µM
17,CC[C@@H]1CC=C[C@H]2[C@H]1C(=O)N(Cc1ccccc1)[C@H]2c1ccc(OC)c(Cl)c1,7.13 µM
18,CCOc1ccc(N/C(N)=N/c2nc(CSc3nnc(C)s3)cc(=O)[nH]2)cc1,0.609 µM
19,Brc1ccc2[nH]c3c(N4CCc5ccccc5C4)ncnc3c2c1,17.3 µM
20,O=C1NC(=Nc2ccc(Cl)cc2)SC1Cc1cccc(Cl)c1Cl (configuration not stated),> 19.5 µM (inactive)
21,O=C(/C=C/c1ccccc1[N+](=O)[O-])c1ccccc1Br,3.64 µM

row,SMILES,AC50
1,COc1ccc2nc(N=Nc3ccc(O)c4ccccc34)sc2c1,3.27 µM
2,COc1cc(Nc2nc(-c3ccccc3)c3cc(C)ccc3n2)cc(OC)c1OC,5.17 µM
3,CCCCc1ccc(N=N/C(C(=O)Nc2ccc(NC(C)=O)cc2OC)=C(/C)O)cc1,17.7 µM
4,CCC(C)n1c(O)c(/C=N/Nc2ccccc2)c(=O)[nH]c1=S (configuration not stated),3.58 µM
5,Cc1cccc2c1NC(=O)/C2=C\C(=O)c1cccs1,6.66 µM
6,Cn1cccc1/C=C1/C(=O)NC(=S)N(Cc2ccc(F)cc2)C1=O,1.7 µM
7,CSc1c(SCc2ccccc2)cnn(-c2ccccc2)c1=O,5.71 µM
8,CC(=O)Nc1ccc(-c2csc(NC(=O)Cc3ccccc3F)n2)cc1,11.5 µM
9,O=c1cc(CNc2cc(C(F)(F)F)cc(C(F)(F)F)c2)nc2sccn12,3.39 µM
10,C/C(=N\Nc1ccccc1)c1c(O)n(-c2ccccc2)c(=O)[nH]c1=O,2.45 µM
11,CCOC(=O)C1CCN(c2ncnc3c2c(-c2ccccc2)cn3-c2ccccc2)CC1,7.43 µM
12,COc1cc(CNCCc2c[nH]c3ccccc23)ccc1OCc1ccccc1F,3.64 µM
13,O=C1C2C(c3ccccc3)CC=CC2[C@H](c2ccc(C(F)(F)F)cc2)N1Cc1ccccc1 (some centres not stated),5.89 µM
14,COc1ccc(Br)cc1C(=O)Nc1cccc(C)c1,> 19.5 µM (inactive)
15,Cc1cccc(OCc2n(CC(=O)OC3CC(C)CCC3C(C)C)c3ccccc3[n+]2C)c1 (configuration not stated),3.47 µM
16,CCN1C(=O)C(CC(=O)Nc2ccc(OC)cc2)N(CCCN2CCN(c3ccc(F)cc3)CC2)C1=S (configuration not stated),7.04 µM
17,Cc1ccc2nc(NNC(=O)c3ccc(S(=O)(=O)N4CCc5ccccc5C4)cc3)sc2c1,3.91 µM
18,COc1ccc(/C=C/C(=O)c2ccncc2)c2ccccc12,10 µM
19,CCC(C)Sc1cccc(-c2nc3cc(C)ccn3c2NCc2ccccc2)c1 (configuration not stated),4.89 µM
20,Cc1cc(N2C(=O)C=CC2=O)c([N+](=O)[O-])cc1C,5.88 µM
21,O=C(c1ccc(OCCN2CCCCC2)cc1)c1c(-c2ccc(O)cc2)sc2cc(O)ccc12,2.35 µM
